Source: patent US8420335B2, “Inhibition of GASC1” (Kobenhavns Universitet, priority 2006, dated 2013)
Entries after “also recorded” stand apart in the source; their conditions may differ. Read-outs that look alike come from different tables or passages of the source. One block for each molecule: values may come before it.

Tests used:
GASC1 = biological target: T1, GASC1 (Homo sapiens, UniProt Q9H3R0); assay: Demethylation assay: recombinant His-GASC1 with bulk histones or H3K9me3 peptide, western blotting; assay type: biochemical
T1 construct: Full-length amino-terminally hexahistidine-tagged human GASC1 baculovirus transfer vector; made in house; host or cells: baculovirus-infected insect cells (pAcHLT-A transfer vector, Bakpak6)
T1 sequence (Q9H3R0 1-1056): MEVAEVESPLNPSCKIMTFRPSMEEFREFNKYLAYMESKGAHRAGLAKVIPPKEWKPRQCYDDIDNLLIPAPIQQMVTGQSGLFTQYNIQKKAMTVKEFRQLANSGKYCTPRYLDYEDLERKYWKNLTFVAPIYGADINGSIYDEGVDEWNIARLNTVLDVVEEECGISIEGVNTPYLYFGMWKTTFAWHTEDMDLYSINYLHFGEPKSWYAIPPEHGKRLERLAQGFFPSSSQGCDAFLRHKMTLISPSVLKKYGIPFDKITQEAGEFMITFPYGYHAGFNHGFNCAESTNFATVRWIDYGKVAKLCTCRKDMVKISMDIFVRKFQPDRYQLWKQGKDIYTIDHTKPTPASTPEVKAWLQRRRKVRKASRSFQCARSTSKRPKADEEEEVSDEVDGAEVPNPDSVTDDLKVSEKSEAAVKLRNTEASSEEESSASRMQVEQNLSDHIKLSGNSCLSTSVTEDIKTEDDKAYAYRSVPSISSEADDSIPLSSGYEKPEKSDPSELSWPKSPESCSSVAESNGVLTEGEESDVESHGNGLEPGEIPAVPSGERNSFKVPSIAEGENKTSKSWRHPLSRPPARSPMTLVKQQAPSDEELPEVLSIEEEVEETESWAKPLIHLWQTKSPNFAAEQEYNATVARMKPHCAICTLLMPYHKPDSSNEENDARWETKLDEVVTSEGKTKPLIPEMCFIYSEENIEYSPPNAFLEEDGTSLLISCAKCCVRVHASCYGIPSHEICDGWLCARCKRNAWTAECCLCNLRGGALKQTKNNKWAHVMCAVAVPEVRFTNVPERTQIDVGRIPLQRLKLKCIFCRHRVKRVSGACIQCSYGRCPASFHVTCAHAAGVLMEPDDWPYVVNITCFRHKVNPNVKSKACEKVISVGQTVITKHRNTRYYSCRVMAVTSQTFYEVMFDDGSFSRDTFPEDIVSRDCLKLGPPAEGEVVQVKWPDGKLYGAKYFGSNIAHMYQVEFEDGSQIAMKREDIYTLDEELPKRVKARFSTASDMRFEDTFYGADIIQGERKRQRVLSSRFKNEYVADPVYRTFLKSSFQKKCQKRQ

KYSE-450 cells = assay: Quercetin treatment of KYSE-450 cells: H3K9me3, senescent-like phenotype, growth; assay type: cell-based, human; conditions: KYSE-450, low/moderate GASC1 level
Source text: (§1) The biological effects of quercetin have previously been attributed to inhibition of topoisomerase I^43, modulation of protein and lipid kinase signalling pathways^44 and scavenging of reactive oxygen species^45, In light of the present findings it is tempting to speculate that the anti-cancer effect of quercetin might at least partially by explained by its inhibitory effect on GASC1 and other members of the JMJD2 subfamily.

U2OS = assay: Quercetin treatment of U2OS cells: H3K9me3, senescent-like phenotype, growth; assay type: cell-based, human; conditions: low/moderate GASC1 level
KYSE-150 cells = assay: Overnight quercetin treatment of KYSE-150 cells: H3K9me3 by immunofluorescence and western blotting, growth, senescence; assay type: cell-based, human
WI38 = assay: Quercetin treatment of WI38 cells: H3K9me3, senescent-like phenotype, growth; assay type: cell-based; conditions: WI38, low/moderate GASC1 level
Source text: as §1

[1] = His-GASC1, bulk histones, co-factors FeSO4 and α-ketoglutarate, 30 min at 37° C., western blotting

SMILES: O=C(O)CNC(=O)C(=O)O [N-oxalylglycine]
inhibition of GASC1-mediated demethylation of H3K9me3 (GASC1; [1]): able to inhibit the demethylation reaction effectively

SMILES: [Cl-].[Cl-].[Co+2] [CoCl2]
inhibition of GASC1-mediated demethylation of H3K9me3 (GASC1): inhibit GASC1 demethylation activity; also recorded: able to inhibit the demethylation reaction effectively

SMILES: O=c1c(O)c(-c2ccc(O)c(O)c2)oc2cc(O)cc(O)c12 [quercetin]
H3K9me3 increase, senescent-like phenotype and growth inhibition compared with KYSE-150 (KYSE-450 cells): did not display the same increase in H3K9me3 nor the same senescent-like phenotype and growth inhibition
H3K9me3 increase, senescent-like phenotype and growth inhibition compared with KYSE-150 (U2OS): did not display the same increase in H3K9me3 nor the same senescent-like phenotype and growth inhibition
inhibition of GASC1-mediated demethylation of H3K9me3 (GASC1; [1]): able to effectively inhibit GASC1-mediated demethylation of H3K9me3 in vitro
inhibition of GASC1-mediated demethylation of H3K9me3 (GASC1; His-GASC1, bulk histones, co-factors FeSO4 and α-ketoglutarate, 30 min at 37° C., western blotting, listed as quercetine): able to inhibit the demethylation reaction effectively
growth rate (KYSE-150 cells; data not shown): marked decrease of growth rate
phenotype (cell morphology, SAHFs, β-gal staining) (KYSE-150 cells; data not shown): senescent-like phenotype
H3K9 trimethylation (KYSE-150 cells; immunofluorescence and western blotting): staggering increase in H3K9 trimethylation
H3K9me3 increase, senescent-like phenotype and growth inhibition compared with KYSE-150 (WI38): did not display the same increase in H3K9me3 nor the same senescent-like phenotype and growth inhibition

SMILES: O=S(=O)([O-])[O-].[Ni+2] [NiSO4]
inhibition of GASC1-mediated demethylation of H3K9me3 (GASC1; [1]): inhibit GASC1 demethylation activity; also recorded: able to inhibit the demethylation reaction effectively

GASC1 demethylation of H3K9me3 in the presence of EDTA (GASC1; EDTA (chelating iron), 30 min at 37° C., western blotting): significantly reduced
SMILES: O=C(O)CN(CCN(CC(=O)O)CC(=O)O)CC(=O)O [EDTA]
